Values joined by “and” are separate entries in the source; they are usually repeats but may differ in a detail not shown here. Equal entries are not always repeated. Where two headings read alike, the source gives them in different places.
Tested on: toxicologically relevant rat genes (rat CT array)
Settings: 24 h, ratio treatment/control, listed as PBARB

Q: What does the source list for `CCC1(c2ccccc2)C(=O)NC(=O)NC1=O` [phenobarbital]?
A: 3-hydroxyisobutyrate dehydrogenase (dose 20): 1.08 and 1.006; 14-3-3 zeta (dose 20): 1.208 and 1.207; 17-beta hydroxysteroid dehydrogenase, type 2 (dose 20): 1.581 and 1.324; 60S ribosomal protein L6 (dose 20): 1.352 and 1.202; ATPase inhibitor (rat mitochondrial IF1 protein) (dose 20): 0.6195 and 0.719; Alpha 1 - inhibitor III (dose 20): 0.5583 and 0.815; Alpha-2-macroglobulin (dose 20): 0.7668 and 0.9845; Bax (alpha) (dose 20): 1.204 and 1.029; Beta-actin (dose 20): 1.31 and 1.008; Calpactin I heavy chain (dose 20): 1.101 and 1.191; Carbamyl phosphate synthetase I (dose 20): 0.7852 and 0.892; Carbonic anhydrase III (dose 20): 0.977 and 0.617; Carbonyl reductase (dose 20): 0.9613 and 0.916; Cathepsin L, sequence 2 (dose 20): 1.563 and 1.367; Cofilin (dose 20): 0.9117; Cyclin G (dose 20): 1; DNA polymerase beta (dose 20): 1.056; Dynamin-1 (D100) (dose 20): 0.8477 and 0.8322; Endogenous retroviral sequence, 5′ and 3′ LTR (dose 20): 0.9945 and 0.7515; Enolase alpha (dose 20): 1.238 and 0.9827; Epidermal growth factor (dose 20): 0.8761 and 0.9811; Equilbrative nitrobenzylthioinosine-sensitive nucleoside transporter (dose 20): 1.018 and 0.7905; Extracellular-signal-regulated kinase 1 (dose 20): 1.131 and 0.7366; Fas antigen (dose 20): 1.246 and 1.226; Gadd45 (dose 20): 1.009 and 1.065; Gadd153 (dose 20): 1.013 and 1.011; Gamma-actin, cytoplasmic (dose 20): 1.054 and 0.8811; Glucose-regulated protein 78 (dose 20): 1.261 and 1.059; Heme oxygenase (dose 20): 0.9438 and 0.9315; Hepatic lipase (dose 20): 0.6998 and 0.9047; ID-1 (dose 20): 0.8693 and 1.008; IgE binding protein (dose 20): 0.8925 and 0.9114; IkB-a (dose 20): 1.305 and 0.9599; Insulin-like growth factor I (dose 20): 0.7485 and 0.9327; Insulin-like growth factor binding protein 1 (dose 20): 1.727 and 1.357; Insulin-like growth factor binding protein 3 (dose 20): 0.8872 and 0.9985; Integrin beta1 (dose 20): 1.272 and 1.092; L-gulono-gamma-lactone oxidase (dose 20): 1.051 and 0.8183; Liver fatty acid binding protein (dose 20): 1.109 and 1.478; MAP kinase kinase (dose 20): 1.185; Macrophage inflammatory protein-2 alpha (dose 20): 1.188 and 1.009; Matrin F/G (dose 20): 1.181 and 1.074; Matrix metalloproteinase-1 (dose 20): 1.164; Melanoma-associated antigen ME491 (dose 20): 0.9925 and 1.119; Monocyte chemotactic protein receptor (CCR2) (dose 20): 1.134; Multidrug resistant protein-2 (dose 20): 1.635 and 1.128; N-hydroxy-2-acetylaminofluorene sulfotransferase (ST1C1) (dose 20): 0.9899 and 0.8091; Organic anion transporter 3 (dose 20): 1.248 and 1.132; Organic cation transporter 3 (dose 20): 1.276 and 1.184; Ornithine decarboxylase (dose 20): 1.253 and 1.099; PAR interacting protein (dose 20): 1.254 and 1.247; Phase-1 RCT 252 (dose 20): 0.9399; Phase-1 RCT-15 (dose 20): 1.589; Phase-1 RCT-33 (dose 20): 1.471; Phase-1 RCT-36 (dose 20): 1.441; Phase-1 RCT-39 (dose 20): 1.098 and 0.9997; Phase-1 RCT-48 (dose 20): 0.8561; Phase-1 RCT-49 (dose 20): 0.9102; Phase-1 RCT-50 (dose 20): 1.003 and 0.9822; Phase-1 RCT-83 (dose 20): 0.8335; Phase-1 RCT-88 (dose 20): 0.963; Phase-1 RCT-102 (dose 20): 0.6239; Phase-1 RCT-117 (dose 20): 0.7039; Phase-1 RCT-123 (dose 20): 0.9541; Phase-1 RCT-127 (dose 20): 0.7569; Phase-1 RCT-128 (dose 20): 0.7394 and 0.7417; Phase-1 RCT-137 (dose 20): 0.7926; Phase-1 RCT-179 (dose 20): 0.8634 and 0.9704; Phase-1 RCT-181 (dose 20): 0.9556; Phase-1 RCT-182 (dose 20): 0.8988; Phase-1 RCT-189 (dose 20): 0.9743; Phase-1 RCT-191 (dose 20): 1.518 and 1.291; Phase-1 RCT-213 (dose 20): 1.105; Phase-1 RCT-239 (dose 20): 0.8651; Phase-1 RCT-242 (dose 20): 0.9504; Phase-1 RCT-256 (dose 20): 0.9833; Phase-1 RCT-258 (dose 20): 1.096; Phase-1 RCT-264 (dose 20): 0.5841; Phase-1 RCT-288 (dose 20): 0.674; Proliferating cell nuclear antigen gene (dose 20): 1.31 and 0.9115; Ribosomal protein L13A (dose 20): 1.101 and 1.176; Ribosomal protein S8 (dose 20): 1.41 and 1.396; Senescence marker protein-30 (dose 20): 0.7967 and 0.7544; Sodium/bile acid cotransporter (dose 20): 1.606 and 1.619; Superoxide dismutase Mn (dose 20): 1.251 and 1.032; Thymosin beta-10 (dose 20): 1.095; Transthyretin (dose 20): 0.579 and 0.7326; Ubiquitin conjugating enzyme (RAD 6 homologue) (dose 20): 1.219 and 1.207; Uncoupling protein 2 (dose 20): 1.028 and 0.9917; Zinc finger protein (dose 20): 1.033 and 1.014; c-jun (dose 20): 0.8724 and 0.8417; c-myc (dose 20): 1.263 and 0.7701; p53 (dose 20): 1.141 and 1.123; {Ribosomal protein L6} (dose 20): 1.13 and 0.9995; 3-hydroxyisobutyrate dehydrogenase (dose 80): 0.9364 and 1.012 and 0.9868; 14-3-3 zeta (dose 80): 1.349 and 1.439 and 1.37

— patent US20040076974A1, “Liver necrosis predictive genes” (priority 2002, published 2004)
